The results in this text go back to ChEMBL document CHEMBL1138588, “Hedgehog-Gli signaling pathway inhibitors as anticancer agents” (J Med Chem, 2009).

pIC50: −log10 of the molar value. Some results are limits rather than exact numbers.

Test [1] in a line: Antitumor activity against human medulloblastoma cells. It is filed as functional. Particulars: Medulloblastoma cell.
The target in the next test is T1, Zinc finger protein GLI1 (Homo sapiens, UniProt P08151).
T1 sequence (P08151 whole entry): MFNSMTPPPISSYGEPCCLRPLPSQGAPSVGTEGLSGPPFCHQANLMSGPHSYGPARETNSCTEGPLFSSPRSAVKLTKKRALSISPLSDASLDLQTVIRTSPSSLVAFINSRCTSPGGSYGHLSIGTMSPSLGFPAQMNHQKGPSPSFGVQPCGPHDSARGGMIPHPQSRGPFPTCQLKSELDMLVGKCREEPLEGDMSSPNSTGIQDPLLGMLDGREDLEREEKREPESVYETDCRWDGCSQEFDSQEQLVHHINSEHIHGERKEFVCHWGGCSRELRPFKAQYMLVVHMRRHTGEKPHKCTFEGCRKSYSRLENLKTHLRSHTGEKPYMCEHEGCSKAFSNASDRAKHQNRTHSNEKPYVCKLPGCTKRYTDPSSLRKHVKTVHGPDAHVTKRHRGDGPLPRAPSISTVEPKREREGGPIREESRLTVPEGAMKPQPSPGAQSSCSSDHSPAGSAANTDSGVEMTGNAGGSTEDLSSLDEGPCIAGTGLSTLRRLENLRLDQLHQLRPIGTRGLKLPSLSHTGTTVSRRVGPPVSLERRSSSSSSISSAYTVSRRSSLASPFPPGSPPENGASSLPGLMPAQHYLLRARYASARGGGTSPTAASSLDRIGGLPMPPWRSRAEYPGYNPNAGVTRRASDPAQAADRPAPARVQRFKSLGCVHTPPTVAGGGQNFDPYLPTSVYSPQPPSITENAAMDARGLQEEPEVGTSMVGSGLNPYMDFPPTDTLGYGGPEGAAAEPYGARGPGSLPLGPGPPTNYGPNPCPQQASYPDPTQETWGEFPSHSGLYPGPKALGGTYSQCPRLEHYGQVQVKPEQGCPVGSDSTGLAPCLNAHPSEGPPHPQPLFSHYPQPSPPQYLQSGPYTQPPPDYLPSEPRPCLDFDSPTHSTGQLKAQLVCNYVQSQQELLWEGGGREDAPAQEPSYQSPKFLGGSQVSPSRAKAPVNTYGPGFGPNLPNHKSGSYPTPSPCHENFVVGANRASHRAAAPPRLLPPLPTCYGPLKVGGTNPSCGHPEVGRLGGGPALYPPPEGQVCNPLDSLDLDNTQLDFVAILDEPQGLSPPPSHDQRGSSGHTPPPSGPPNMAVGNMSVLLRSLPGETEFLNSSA
The test is described as follows: Inhibition of Gli1-mediated transcription expressed in human PANC1 cells. It is filed as cell-based. Conditions: panc-1.

The nature of test [2]: Selectivity for Gli over Gli2.
The test system of another test is PANC-1. The test is described as follows: Selectivity for human PANC1 cells over mouse C3H10/T1/2 cells.
Test [3] can be described thus: Growth inhibition of human L3.6p1 cells. It is filed as functional.
A short description of test [4]: Growth inhibition of human Panc 05.04 cells. It is filed as functional.
In test [5] the test system is BXPC-3. The test is described as follows: Growth inhibition of human BxPC3 cells. It is filed as functional.
Test [6] is described as follows: Growth inhibition of human D283 MED cells. It is filed as functional.
Another test relates to Daoy. The test is described as follows: Growth inhibition of human DaOY cells. It is filed as functional.
A short description of test [7]: In vivo antitumor activity against human L3.6s1 cells assessed as inhibition of tumor growth. It is filed as functional.
In test [8] the test system is BXPC-3. The test is described as follows: In vivo antitumor activity against human BxPC3 cells assessed as inhibition of tumor growth. It is filed as functional.
The test system of the next test is Mus musculus. The test is described as follows: Antitumor activity against transgenic mouse medulloblastoma model with loss of function mutations in Ptch1 and Hic1 gene administered as once daily oral dose. It is filed as functional.

Broadly, the pIC50 is −log10 of the IC50, conventionally taken in molar units. A higher pIC50 goes with a small IC50. With `COc1cc(OC)cc(C(=O)Nc2ccc(Cl)c(-c3nc4cc(N(C)C)ccc4[nH]3)c2)c1`, the pIC50 in [1] was 5.00.

Molecule `C=C(C)[C@@H]1CC[C@]2(C(=O)O)CC[C@]3(C)[C@H](CC[C@@H]4[C@@]5(C)CC[C@H](O)C(C)(C)[C@@H]5CC[C@]43C)[C@@H]12` [BETULINIC ACID] gave a pIC50 at Zinc finger protein GLI1 of 4.49.

`C=C(C)[C@@H]1CC[C@]2(C(=O)O)CC[C@]3(C)[C@H](CC[C@@H]4[C@@]5(C)[C@H](C=O)[C@@H](O)C(C)(C)[C@@H]5CC[C@]43C)[C@@H]12` [COLUBRINIC ACID]: the pIC50 on Zinc finger protein GLI1 was 4.42.

With `C[C@@]12C[C@H]3OC(=O)[C@@H]1CO[C@]14O[C@]5([C@H]2C1=O)[C@@](O)(CC[C@H]1[C@H]4C[C@H]2O[C@]24CC=CC(=O)[C@]14C)C(=O)O[C@@]35C` [PHYSALIN F], the Ratio IC50 in [2] was 2. Besides, in the test with PANC-1, the “Selectivity Index” value came out at 3.

Usually GI50 stands for the concentration that inhibits growth by half. Read a low GI50 as greater sensitivity of the cells. For `CCOc1ccc(Nc2nc(-c3c(C)nc4ccccn34)cs2)cc1`, the GI50 (in test [3]; in test [4]; in the test on BXPC-3 [5]; in [6]; in the test on Daoy) was 3 nM throughout. The “inhibition (INH)” value (in [7]; in the test on BXPC-3 [8]) was 30% each time.

Regarding `C=C(C)[C@@H]1CC[C@]2(C(=O)O)CC[C@]3(C)[C@H](CC[C@@H]4[C@@]5(C)C[C@@H](O)[C@H](O)C(C)(C)[C@@H]5CC[C@]43C)[C@@H]12` [ALPHITOLIC ACID], the pIC50 against Zinc finger protein GLI1 is 4.38.

As usually defined, the ED50 is the midpoint of the dose-response relation. Read a high ED50 as weaker potency. `CC1=C2C[C@H]3[C@@H](CC[C@@H]4CNC(=O)CC[C@@]43C)[C@@H]2CC[C@@]2(C1)O[C@@H]1C[C@H](C)CN[C@H]1[C@H]2C` returned an ED50 with Mus musculus of less than 7.5 mg/kg.

Consider `O=C1NCc2c1c1c3ccccc3[nH]c1c1[nH]c3ccccc3c21` [STAUROSPORINONE], for which the “Selectivity Index” value in the test with PANC-1 stood at 3.

In the case of `C[C@]12C(=O)C=CCC1=CC[C@@H]1[C@@H]2CC[C@]2(O)C(=O)O[C@@]3(C)[C@H]4C[C@]5(C)[C@@H](CO[C@@]16O[C@@]32[C@H]5C6=O)C(=O)O4` [PHYSALIN B], the Ratio IC50 in test [2] was found to be 2. The “Selectivity Index” value with PANC-1 is on record as 3.
